Assay results taken from article PMC5119973 (Cancer Medicine, 2016).
“And” between values parts separate entries of the source, which are not always exact repeats. Equal values may be shown once.

Key:
TNIK = target: T1, TNIK (Homo sapiens, UniProt Q9UKE5); test: KINOMEscan active-site competitive binding assay; details: slash = two separate measurements
T1 construct: purchased DiscoveRx

FRK = target: T2, FRK (Homo sapiens, UniProt P42685); test: KINOMEscan active-site competitive binding assay; details: slash = two separate measurements
T2 construct: purchased DiscoveRx (KINOMEscan service)
T2 sequence (P42685 whole entry): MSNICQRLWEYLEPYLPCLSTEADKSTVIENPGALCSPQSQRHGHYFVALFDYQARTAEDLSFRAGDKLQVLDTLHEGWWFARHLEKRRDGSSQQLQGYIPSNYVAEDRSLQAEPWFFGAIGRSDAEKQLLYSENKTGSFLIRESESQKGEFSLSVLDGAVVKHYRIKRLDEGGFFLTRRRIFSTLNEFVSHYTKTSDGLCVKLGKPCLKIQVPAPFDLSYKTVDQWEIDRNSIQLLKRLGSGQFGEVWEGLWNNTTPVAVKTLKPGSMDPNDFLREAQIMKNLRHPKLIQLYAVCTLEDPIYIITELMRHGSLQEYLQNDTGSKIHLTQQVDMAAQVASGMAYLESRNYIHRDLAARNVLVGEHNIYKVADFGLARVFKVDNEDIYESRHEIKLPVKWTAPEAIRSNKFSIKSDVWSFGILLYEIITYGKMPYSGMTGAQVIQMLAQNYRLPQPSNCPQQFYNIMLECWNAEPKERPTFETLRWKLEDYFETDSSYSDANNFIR

HT‐29 = HT‐29 colon cancer xenograft in NMRI nu/nu mice; type: in vivo, mouse; details: end of study day 39
Protocol: Mouse experiments were approved by the relevant regulatory agency of the federal state of Berlin (Landesamt für Gesundheit und Soziales Berlin, approval number G0221/03). Mice were maintained in individually ventilated cages in groups of four mice per cage. They received autoclaved food and bedding (Ssniff, Soest, Germany) and acidified (pH 4.0) tap water ad libitum. The animal facility was equipped with an automatic 12 h light/dark regulation, temperature regulation at 22 ± 2°C, and relative humidity of 50 ± 10%. Female NMRI nu/nu mice (purchased from Charles River, Sulzfeld, Germany) were inoculated with 1 × 10^7 MDA‐MB‐231 or HT‐29 cells, which were allowed to grow subcutaneously to a palpable size of approximately 60–100 mm^3. […] All administrations were performed in the morning, without anesthesia. Tumor volume was determined twice per week using caliper measurements, and the volume was calculated using the formula (D × d^2)/2, with d defined as the minor axis and D as the major axis of the measurement. Tumor growth inhibition was calculated as relative tumor volume in relation to the first treatment day.
Changes in tumor volume were statistically evaluated by two‐way repeated‐measures analysis of variance, followed by Bonferroni correction, using GraphPad Prism 5 (San Diego, CA), and P < 0.05 was regarded as significant. Additionally, body weight of all mice was determined twice weekly, and the health status of the animals, including behavioral changes, was recorded daily.

CDKL2 = target: T3, CDKL2 (Homo sapiens, UniProt Q92772); test: KINOMEscan active-site competitive binding assay; details: slash = two separate measurements
T3 construct: purchased DiscoveRx (KINOMEscan service)
T3 sequence (Q92772 1-493): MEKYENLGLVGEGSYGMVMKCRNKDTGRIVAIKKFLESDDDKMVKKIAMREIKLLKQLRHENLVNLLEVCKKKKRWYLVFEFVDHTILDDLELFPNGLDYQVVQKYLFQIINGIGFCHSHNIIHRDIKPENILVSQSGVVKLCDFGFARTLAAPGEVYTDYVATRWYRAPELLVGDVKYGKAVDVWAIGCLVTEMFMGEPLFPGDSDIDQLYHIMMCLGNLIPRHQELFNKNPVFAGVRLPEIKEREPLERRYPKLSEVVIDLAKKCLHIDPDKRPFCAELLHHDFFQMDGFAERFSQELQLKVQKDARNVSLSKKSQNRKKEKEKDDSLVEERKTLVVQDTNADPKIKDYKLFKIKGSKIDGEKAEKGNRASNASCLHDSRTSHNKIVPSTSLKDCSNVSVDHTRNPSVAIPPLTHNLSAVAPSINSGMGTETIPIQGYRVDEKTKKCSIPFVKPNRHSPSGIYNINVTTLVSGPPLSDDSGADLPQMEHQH

TAOK3 = target: T4, TAOK3 (Homo sapiens, UniProt Q9H2K8); test: KINOMEscan active-site competitive binding assay; details: slash = duplicate values
T4 construct: purchased DiscoveRx
T4 sequence (Q9H2K8 1-898): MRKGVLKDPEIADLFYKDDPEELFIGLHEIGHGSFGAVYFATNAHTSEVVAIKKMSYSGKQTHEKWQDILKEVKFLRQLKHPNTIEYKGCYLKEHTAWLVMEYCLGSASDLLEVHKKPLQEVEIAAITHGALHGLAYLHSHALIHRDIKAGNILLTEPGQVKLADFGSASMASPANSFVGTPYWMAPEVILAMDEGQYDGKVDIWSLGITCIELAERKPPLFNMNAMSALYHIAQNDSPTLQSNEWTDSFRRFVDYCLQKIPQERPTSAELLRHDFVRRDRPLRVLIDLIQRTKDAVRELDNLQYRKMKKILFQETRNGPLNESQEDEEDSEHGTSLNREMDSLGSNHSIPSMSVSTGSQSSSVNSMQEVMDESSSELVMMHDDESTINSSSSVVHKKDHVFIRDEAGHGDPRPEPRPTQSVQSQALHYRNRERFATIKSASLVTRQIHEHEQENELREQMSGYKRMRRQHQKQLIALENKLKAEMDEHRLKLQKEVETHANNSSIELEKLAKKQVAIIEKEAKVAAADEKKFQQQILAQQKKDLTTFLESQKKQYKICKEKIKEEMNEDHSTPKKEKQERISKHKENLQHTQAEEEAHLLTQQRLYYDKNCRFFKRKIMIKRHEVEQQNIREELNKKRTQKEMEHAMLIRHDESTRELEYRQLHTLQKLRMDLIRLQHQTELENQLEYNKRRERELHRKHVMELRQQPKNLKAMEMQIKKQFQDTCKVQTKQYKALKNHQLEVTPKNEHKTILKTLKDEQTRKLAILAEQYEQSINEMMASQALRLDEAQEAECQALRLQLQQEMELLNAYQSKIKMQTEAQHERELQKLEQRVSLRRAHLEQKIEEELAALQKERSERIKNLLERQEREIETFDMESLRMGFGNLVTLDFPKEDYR

[1] = Calculated free drug concentration in human plasma; type: in vivo
[2] = Plasma protein binding in vitro (Transil), mouse plasma; type: in vitro ADME
Protocol: A radioactivity analysis was performed by liquid scintillation counting. […] All compounds were tested for stability at the incubation conditions used.

TAK1 = target: T5, TAK1 (Homo sapiens, UniProt O43318); test: KINOMEscan active-site competitive binding assay; details: slash = two separate measurements
T5 construct: purchased DiscoveRx
T5 sequence (O43318 1-606): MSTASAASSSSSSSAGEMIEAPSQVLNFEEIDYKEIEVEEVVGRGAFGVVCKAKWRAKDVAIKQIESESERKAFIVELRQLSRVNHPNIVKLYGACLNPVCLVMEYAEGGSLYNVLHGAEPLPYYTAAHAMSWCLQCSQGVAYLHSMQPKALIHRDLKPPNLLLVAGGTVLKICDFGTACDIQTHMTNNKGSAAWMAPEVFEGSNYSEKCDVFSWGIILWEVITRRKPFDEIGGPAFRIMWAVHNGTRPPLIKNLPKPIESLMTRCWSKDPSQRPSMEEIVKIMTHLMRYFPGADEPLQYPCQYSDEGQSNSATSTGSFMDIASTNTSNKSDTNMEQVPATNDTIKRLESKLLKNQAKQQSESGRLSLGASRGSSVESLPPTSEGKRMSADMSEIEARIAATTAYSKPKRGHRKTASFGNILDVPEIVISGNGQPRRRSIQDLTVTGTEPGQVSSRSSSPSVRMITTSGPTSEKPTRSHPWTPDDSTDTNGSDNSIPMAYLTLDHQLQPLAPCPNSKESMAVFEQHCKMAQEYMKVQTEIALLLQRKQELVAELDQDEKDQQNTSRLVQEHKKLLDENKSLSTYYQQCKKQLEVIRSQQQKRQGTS

[3] = mouse (CD‐1), male, plasma, arithmetic mean ± SD

T1 sequence (Q9UKE5 whole entry): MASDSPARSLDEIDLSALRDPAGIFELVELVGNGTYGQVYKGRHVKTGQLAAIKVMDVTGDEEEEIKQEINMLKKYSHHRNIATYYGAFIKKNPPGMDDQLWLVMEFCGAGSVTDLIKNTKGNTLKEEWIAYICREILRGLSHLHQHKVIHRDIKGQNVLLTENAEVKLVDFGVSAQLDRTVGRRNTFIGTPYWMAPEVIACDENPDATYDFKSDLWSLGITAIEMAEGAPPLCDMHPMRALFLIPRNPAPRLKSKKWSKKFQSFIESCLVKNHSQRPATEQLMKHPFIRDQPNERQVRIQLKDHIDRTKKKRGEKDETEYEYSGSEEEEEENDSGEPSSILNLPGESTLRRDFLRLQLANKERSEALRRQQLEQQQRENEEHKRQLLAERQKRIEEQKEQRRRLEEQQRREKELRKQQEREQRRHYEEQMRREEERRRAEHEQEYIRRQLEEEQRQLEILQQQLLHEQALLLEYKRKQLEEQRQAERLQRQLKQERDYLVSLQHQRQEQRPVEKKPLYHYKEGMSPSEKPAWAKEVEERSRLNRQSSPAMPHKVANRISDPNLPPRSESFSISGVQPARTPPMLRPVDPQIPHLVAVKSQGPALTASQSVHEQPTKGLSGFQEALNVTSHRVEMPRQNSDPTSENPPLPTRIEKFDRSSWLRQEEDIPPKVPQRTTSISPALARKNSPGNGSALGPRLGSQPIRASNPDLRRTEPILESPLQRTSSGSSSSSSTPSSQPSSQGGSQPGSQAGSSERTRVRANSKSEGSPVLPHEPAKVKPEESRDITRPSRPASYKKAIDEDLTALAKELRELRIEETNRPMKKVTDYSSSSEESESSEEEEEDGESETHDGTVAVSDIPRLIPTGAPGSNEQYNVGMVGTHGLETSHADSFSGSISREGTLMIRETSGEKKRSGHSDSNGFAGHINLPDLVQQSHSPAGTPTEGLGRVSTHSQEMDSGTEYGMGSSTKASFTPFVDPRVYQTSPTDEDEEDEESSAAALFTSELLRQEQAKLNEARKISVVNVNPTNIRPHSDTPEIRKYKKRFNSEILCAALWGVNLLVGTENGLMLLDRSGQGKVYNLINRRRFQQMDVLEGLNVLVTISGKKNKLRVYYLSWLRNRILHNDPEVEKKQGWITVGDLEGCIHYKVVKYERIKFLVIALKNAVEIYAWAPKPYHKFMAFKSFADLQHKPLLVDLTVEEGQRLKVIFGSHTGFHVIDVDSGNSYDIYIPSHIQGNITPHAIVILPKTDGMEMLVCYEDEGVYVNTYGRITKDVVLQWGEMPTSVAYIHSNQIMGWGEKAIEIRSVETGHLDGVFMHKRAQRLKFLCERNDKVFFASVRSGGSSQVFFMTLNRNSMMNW

| Compound | Kd (TNIK) | Kd (FRK) | Tumor growth inhibition (%) (HT‐29; 3 mg/kg/day oral for 27 days) | Tumor growth inhibition (%) (HT‐29; 10 mg/kg/day oral for 27 days) | Kd (CDKL2) | Kd (TAOK3) | Calculated free drug concentration [1] | Unbound fraction (%) [2, 3] | Proportion of protein‐bound drug ([2]; murine plasma) | Unbound fraction, fold higher than that of regorafenib ([2]; murine plasma) | Kd (TAK1) | fraction unbound ([2]; male, CD-1, mouse, plasma, mouse (CD‐1), arithmetic mean ± SD) |
| --- | --- | --- | --- | --- | --- | --- | --- | --- | --- | --- | --- | --- |
| CNC(=O)c1cc(Oc2ccc(NC(=O)Nc3ccc(Cl)c(C(F)(F)F)c3)c(F)c2)cc[n+]1[O-] [M‐2] | 41 nM | 42 nM | 35% | 59% | 76 nM | 94 nM and 77 nM | 13.5 nmol/L | 0.888 ± 0.033% | more than 99% | approximately 1.5 fold | 79 nM | – |
| NC(=O)c1cc(Oc2ccc(NC(=O)Nc3ccc(Cl)c(C(F)(F)F)c3)c(F)c2)cc[n+]1[O-] [M‐5] | 120 nM | 24 nM | 13% | 66% | 1100 nM | 450 nM | 3.4 nmol/L | 0.412 ± 0.041% | more than 99% | – | 120 nM | – |
| CNC(=O)c1cc(Oc2ccc(NC(=O)Nc3ccc(Cl)c(C(F)(F)F)c3)c(F)c2)ccn1 [Regorafenib, reference compound] | 1100 nM and 970 nM | 69 nM and 42 nM | 34% | 67% | 48 nM and 58 nM | 200 nM and 290 nM | 42.1 nmol/L | 0.575 ± 0.039% | more than 99% | – | 170 nM and 260 nM | ~0.006 |
